Measurements published in BindingDB's records for doi:10.1016/j.bmcl.2003.12.032 (Boehringer Ingelheim (Canada), 2004).

Experiments:
[1] = Concentration required to inhibit DNA dependent RNA polymerase was determined from calf thymus
[2] = Concentration required to inhibit RNA dependent RNA polymerase was determined from polio virus
[3] = as above; remark: listed apart in the source

Row | SMILES | IC50 [1] | IC50 [2] | IC50 [3]
1 | CC(=O)Nc1ccc2[nH]cc(C[C@H](NC(=O)c3ccc4c(c3)nc(-c3ccoc3)n4C3CCCCC3)C(=O)O)c2c1 [(S)-3-(5-Acetylamino-1H-indol-3-yl)-2-[(1-cyclohexyl-2-furan-3-yl-1H-benzoimidazole-5-carbonyl)-amino]-propionic acid] | > 250 µM | > 125 µM | –
2 | O=C(N[C@@H](Cc1c[nH]c2ccc(NS(=O)(=O)C(F)(F)F)cc12)C(=O)O)c1ccc2c(c1)nc(-c1ccoc1)n2C1CCCCC1 [(S)-2-[(1-Cyclohexyl-2-furan-3-yl-1H-benzoimidazole-5-carbonyl)-amino]-3-(5-trifluoromethanesulfonylamino-1H-indol-3-yl)-propionic acid] | > 250 µM | > 250 µM | –
3 | O=C(O)COc1ccc2[nH]cc(C[C@H](NC(=O)c3ccc4c(c3)nc(-c3ccoc3)n4C3CCCCC3)C(=O)O)c2c1 [(S)-3-(5-(carboxymethoxy)-1H-indol-3-yl)-2-(1-cyclohexyl-2-(furan-3-yl)-1H-benzo[d]imidazole-5-carboxamido)propanoic acid] | > 200 µM | – | 100 µM
4 | CC(C)(Oc1ccc2[nH]cc(C[C@H](NC(=O)c3ccc4c(c3)nc(-c3ccoc3)n4C3CCCCC3)C(=O)O)c2c1)C(=O)O [(S)-3-[5-(1-Carboxy-1-methyl-ethoxy)-1H-indol-3-yl]-2-[(1-cyclohexyl-2-furan-3-yl-1H-benzoimidazole-5-carbonyl)-amino]-propionic acid] | – | > 200 µM | –
5 | CS(=O)(=O)Nc1ccc2[nH]cc(C[C@H](NC(=O)c3ccc4c(c3)nc(-c3ccoc3)n4C3CCCCC3)C(=O)O)c2c1 [(S)-2-[(1-Cyclohexyl-2-furan-3-yl-1H-benzoimidazole-5-carbonyl)-amino]-3-(5-methanesulfonylamino-1H-indol-3-yl)-propionic acid] | – | > 500 µM | –
6 | Nc1ccc2[nH]cc(C[C@H](NC(=O)c3ccc4c(c3)nc(-c3ccoc3)n4C3CCCCC3)C(=O)O)c2c1 [(S)-3-(5-Amino-1H-indol-3-yl)-2-[(1-cyclohexyl-2-furan-3-yl-1H-benzoimidazole-5-carbonyl)-amino]-propionic acid] | > 250 µM | – | > 500 µM
7 | O=C(N[C@@H](Cc1c[nH]c2ccc(O)cc12)C(=O)O)c1ccc2c(c1)nc(-c1ccoc1)n2C1CCCCC1 [(S)-2-[(1-Cyclohexyl-2-furan-3-yl-1H-benzoimidazole-5-carbonyl)-amino]-3-(5-hydroxy-1H-indol-3-yl)-propionic acid] | > 200 µM | – | 79 µM
8 | O=C(N[C@@H](Cc1c[nH]c2ccc(-c3nnn[nH]3)cc12)C(=O)O)c1ccc2c(c1)nc(-c1ccoc1)n2C1CCCCC1 [(S)-2-[(1-Cyclohexyl-2-furan-3-yl-1H-benzoimidazole-5-carbonyl)-amino]-3-[5-(5H-tetrazol-5-yl)-1H-indol-3-yl]-propionic acid] | > 250 µM | – | > 200 µM
9 | NC(=O)c1ccc2[nH]cc(C[C@H](NC(=O)c3ccc4c(c3)nc(-c3ccoc3)n4C3CCCCC3)C(=O)O)c2c1 [(S)-3-(5-Carbamoyl-1H-indol-3-yl)-2-[(1-cyclohexyl-2-furan-3-yl-1H-benzoimidazole-5-carbonyl)-amino]-propionic acid] | > 250 µM | > 200 µM | –
10 | O=C(O)c1ccc2[nH]cc(C[C@H](NC(=O)c3ccc4c(c3)nc(-c3ccoc3)n4C3CCCCC3)C(=O)O)c2c1 [3-{(S)-2-Carboxy-2-[(1-cyclohexyl-2-furan-3-yl-1H-benzoimidazole-5-carbonyl)-amino]-ethyl}-1H-indole-5-carboxylic acid] | > 250 µM | > 200 µM | –
11 | O=C(O)C(=O)Nc1ccc2[nH]cc(C[C@H](NC(=O)c3ccc4c(c3)nc(-c3ccoc3)n4C3CCCCC3)C(=O)O)c2c1 [(S)-2-[(1-Cyclohexyl-2-furan-3-yl-1H-benzoimidazole-5-carbonyl)-amino]-3-[5-(oxalyl-amino)-1H-indol-3-yl]-propionic acid] | > 250 µM | – | > 250 µM
